# Columns and labels:
# P70S6K (T412E mutant) = P70S6K (T412E mutant) (Homo sapiens (Human), UniProt P23443, T412E); assay: P70S6K enzyme assay; assay type: biochemical; conditions: read-out: IC50 p70S6K
# Protocol: P70S6K inhibitor compounds are diluted and plated in 96 well plates. […] The reaction is incubated for 90 min at 25° C., before the addition of 10 mM EDTA to stop the reaction. The proportion of substrate and product (phosphorylated) peptide is analysed on a Caliper Life Sciences Lab Chip 3000, using a pressure of −1.4 psi, and upstream and downstream voltages of −3000 and −700 respectively. Product peaks are resolved before substrate peaks on the resulting chromatograms.
# His-AKT (Full Length) = His-AKT (Full Length) (Homo sapiens (Human), UniProt P31749); assay: AKT enzyme assay; assay type: biochemical; conditions: read-out: IC50 AKT
# Sequence of His-AKT (Full Length) (P31749 whole entry): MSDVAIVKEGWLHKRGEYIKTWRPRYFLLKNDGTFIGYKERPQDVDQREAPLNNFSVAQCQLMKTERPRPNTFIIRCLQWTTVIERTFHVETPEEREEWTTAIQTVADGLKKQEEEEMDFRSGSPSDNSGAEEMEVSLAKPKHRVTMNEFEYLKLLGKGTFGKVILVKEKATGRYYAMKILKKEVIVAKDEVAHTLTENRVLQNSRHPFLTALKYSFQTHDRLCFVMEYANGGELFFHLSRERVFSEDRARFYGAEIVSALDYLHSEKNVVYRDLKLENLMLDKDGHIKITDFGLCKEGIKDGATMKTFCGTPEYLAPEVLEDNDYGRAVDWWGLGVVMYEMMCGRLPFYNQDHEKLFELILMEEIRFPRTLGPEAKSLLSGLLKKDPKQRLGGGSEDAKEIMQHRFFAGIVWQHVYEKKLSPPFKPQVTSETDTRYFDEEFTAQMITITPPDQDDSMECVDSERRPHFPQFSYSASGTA
# Protocol: A TTP Mosquito liquid handling instrument is used to place 125n1 of the appropriate concentration of inhibitor in 100% DMSO (for a dose response curve calculation) into each well of a 384-well plate.
# The reaction is incubated for 90 min at 25 C, and then stopped by the addition of 70 μl of Stop buffer (100 mM HEPES pH 7.5, 0.015% Brij-35, 10 mM EDTA (Sigma, E7889)).
# The plate is read on a Caliper LC 3000 in an Off-Chip mobility shift assay format, using the following parameters for a 12-sipper chip: screening pressure −2.3 psi, upstream voltage −500, and downstream voltage −3000. These conditions cause unphosphorylated substrate and phosphorylated product peptide to resolve as separate peaks allowing direct measurement of percentage of conversion of substrate to product. The percent conversion can be plotted against concentration of inhibitor to produce a sigmoidal dose response curve, from which an IC50 can be calculated.
# Sequence of P70S6K (T412E mutant) (P23443 whole entry T412E): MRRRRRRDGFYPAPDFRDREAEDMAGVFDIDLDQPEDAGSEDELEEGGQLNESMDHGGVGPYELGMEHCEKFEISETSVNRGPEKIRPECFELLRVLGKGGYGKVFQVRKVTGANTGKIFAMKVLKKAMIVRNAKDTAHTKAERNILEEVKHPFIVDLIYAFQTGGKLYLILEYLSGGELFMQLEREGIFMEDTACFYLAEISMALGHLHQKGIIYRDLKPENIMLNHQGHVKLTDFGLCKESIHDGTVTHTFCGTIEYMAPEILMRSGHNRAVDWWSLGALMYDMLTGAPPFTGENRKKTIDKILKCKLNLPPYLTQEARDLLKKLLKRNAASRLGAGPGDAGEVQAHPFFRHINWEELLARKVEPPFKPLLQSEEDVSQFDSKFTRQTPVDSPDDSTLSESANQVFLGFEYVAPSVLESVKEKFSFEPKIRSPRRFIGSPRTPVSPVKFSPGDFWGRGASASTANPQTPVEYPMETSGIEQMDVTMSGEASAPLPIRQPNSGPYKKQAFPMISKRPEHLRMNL
IC50 (P70S6K (T412E mutant)),IC50 (His-AKT (Full Length)),SMILES
1.7 nM,600 nM,"Nc1ncnc(N2CCC(c3nc(-c4ccc(F)c(C(F)(F)F)c4)c[nH]3)CC2)c1Br [Compound 43, 5-Bromo-6-{4-[4-(4-fluoro-3-trifluoromethyl-phenyl)-1H-imidazol-2-yl]-piperidin-1-yl}-pyrimidin-4-ylamine]"
2.4 nM,9500 nM,"Nc1ncnc(N2CCC(c3nc(-c4ccc(F)c(C(F)(F)F)c4)c[nH]3)CC2)c1-c1ccc(F)cc1 [Compound 44, 5-(4-Fluoro-phenyl)-6-{4-[4-(4-fluoro-3-trifluoromethyl-phenyl)-1H-imidazol-2-yl]-piperidin-1-yl}-pyrimidin-4-ylamine]"
2.7 nM,440 nM,"Cn1cc(-c2ccc(F)c(C(F)(F)F)c2)nc1C1CCN(c2ncnc(N)c2-c2cncnc2)CC1 [Compound 48, 6-{4-[4-(4-Fluoro-3-trifluoromethyl-phenyl)-1-methyl-1H-imidazol-2-yl]-piperidin-1-yl}-[5,5′]bipyrimidinyl-4-ylamine]"
2.3 nM,880 nM,"Cn1cc(-c2ccc(F)c(C(F)(F)F)c2)nc1C1CCN(c2ncnc(N)c2-c2cccnc2)CC1 [Compound 53, 6-{4-[4-(4-Fluoro-3-trifluoromethyl-phenyl)-1-methyl-1H-imidazol-2-yl]-piperidin-1-yl}-5-pyridin-3-yl-pyrimidin-4-ylamine]"
2.5 nM,740 nM,"COC/C=C/c1c(N)ncnc1N1CCC(c2nc(-c3ccc(F)c(C(F)(F)F)c3)cn2C)CC1 [Compound 54, 6-{4-[4-(4-Fluoro-3-trifluoromethyl-phenyl)-1-methyl-1H-imidazol-2-yl]-piperidin-1-yl}-5-((E)-3-methoxy-propenyl)-pyrimidin-4-ylamine]"
2.1 nM,850 nM,"Cc1ncc(-c2c(N)ncnc2N2CCC(c3nc(-c4ccc(F)c(C(F)(F)F)c4)cn3C)CC2)s1 [Compound 55, 6-{4-[4-(4-Fluoro-3-trifluoromethyl-phenyl)-1-methyl-1H-imidazol-2-yl]-piperidin-1-yl}-5-(2-methyl-thiazol-5-yl)-pyrimidin-4-ylamine]"
3.5 nM,14 nM,Nc1ncnc(N2CCC(c3nc(-c4ccc(F)c(C(F)(F)F)c4)cn3CCN3CCCC3)CC2)c1Br [Compound 56]
8.2 nM,140 nM,Nc1ncnc(N2CCC(c3nc(-c4ccc(F)c(C(F)(F)F)c4)cn3CCN3CCCC3)CC2)c1-c1ccc(F)cc1 [Compound 57]
3.7 nM,75 nM,Nc1ncnc(N2CCC(c3nc(-c4ccc(F)c(C(F)(F)F)c4)cn3CCN3CCCC3)CC2)c1-c1ccccc1F [Compound 58]
9.6 nM,110 nM,Nc1ncnc(N2CCC(c3nc(-c4ccc(F)c(C(F)(F)F)c4)cn3CCN3CCCC3)CC2)c1-c1ccc(F)c(F)c1 [Compound 59]
2.5 nM,6.8 nM,C=Cc1c(N)ncnc1N1CCC(c2nc(-c3ccc(F)c(C(F)(F)F)c3)cn2CCN2CCCC2)CC1 [Compound 60]
2.8 nM,9 nM,"Nc1ncnc(N2CCC(c3nc(-c4ccc(F)c(C(F)(F)F)c4)cn3CCN3CCCCC3)CC2)c1Br [Compound 61, 5-Bromo-6-{4-[4-(4-fluoro-3-trifluoromethyl-phenyl)-1-(2-piperidin-1-yl-ethyl)-1H-imidazol-2-yl]-piperidin-1-yl}-pyrimidin-4-ylamine]"
18 nM,350 nM,Nc1ncnc(N2CCC(c3nc(-c4ccc(F)c(C(F)(F)F)c4)cn3CCN3CCCCC3)CC2)c1-c1ccc(F)cc1 [Compound 62]
5.1 nM,130 nM,Nc1ncnc(N2CCC(c3nc(-c4ccc(F)c(C(F)(F)F)c4)cn3CCN3CCCCC3)CC2)c1-c1ccccc1F [Compound 63]
8.7 nM,85 nM,Nc1ncnc(N2CCC(c3nc(-c4ccc(F)c(C(F)(F)F)c4)cn3CCN3CCCCC3)CC2)c1-c1cccc(F)c1 [Compound 64]
5.5 nM,12 nM,"C=Cc1c(N)ncnc1N1CCC(c2nc(-c3ccc(F)c(C(F)(F)F)c3)cn2CCN2CCCCC2)CC1 [Compound 65, 6-{4-[4-(4-Fluoro-3-trifluoromethyl-phenyl)-1-(2-piperidin-1-yl-ethyl)-1H-imidazol-2-yl]-piperidin-1-yl}-5-vinyl-pyrimidin-4-ylamine]"
110 nM,410 nM,Nc1cc(N2CCC(c3nc(-c4ccc(F)c(C(F)(F)F)c4)cn3CCN3CCCCC3)CC2)ncn1 [Compound 66]
2.2 nM,9.3 nM,"CN(C)CCn1cc(-c2ccc(F)c(C(F)(F)F)c2)nc1C1CCN(c2ncnc(N)c2Br)CC1 [Compound 67, 5-Bromo-6-{4-[1-(2-dimethylamino-ethyl)-4-(4-fluoro-3-trifluoromethyl-phenyl)-1H-imidazol-2-yl]-piperidin-1-yl}-pyrimidin-4-ylamine]"
7.3 nM,230 nM,"CN(C)CCn1cc(-c2ccc(F)c(C(F)(F)F)c2)nc1C1CCN(c2ncnc(N)c2-c2ccc(F)cc2)CC1 [Compound 68, 6-{4-[1-(2-Dimethylamino-ethyl)-4-(4-fluoro-3-trifluoromethyl-phenyl)-1H-imidazol-2-yl]-piperidin-1-yl}-5-(4-fluoro-phenyl)-pyrimidin-4-ylamine]"
3 nM,43 nM,"CN(C)CCn1cc(-c2ccc(F)c(C(F)(F)F)c2)nc1C1CCN(c2ncnc(N)c2-c2ccncc2)CC1 [Compound 69, 6-{4-[1-(2-Dimethylamino-ethyl)-4-(4-fluoro-3-trifluoromethyl-phenyl)-1H-imidazol-2-yl]-piperidin-1-yl}-5-pyridin-4-yl-pyrimidin-4-ylamine]"
5.6 nM,450 nM,"CN(C)CCn1cc(-c2ccc(F)c(C(F)(F)F)c2)nc1C1CCN(c2ncnc(N)c2-c2cnc(N)nc2)CC1 [Compound 71, 6′-{4-[1-(2-Dimethylamino-ethyl)-4-(4-fluoro-3-trifluoromethyl-phenyl)-1H-imidazol-2-yl]-piperidin-1-yl}-[5,5′]bipyrimidinyl-2,4′-diamine]"
5 nM,15 nM,"C=C(C)c1c(N)ncnc1N1CCC(c2nc(-c3ccc(F)c(C(F)(F)F)c3)cn2CCN(C)C)CC1 [Compound 72, 6-{4-[1-(2-Dimethylamino-ethyl)-4-(4-fluoro-3-trifluoromethyl-phenyl)-1H-imidazol-2-yl]-piperidin-1-yl}-5-isopropenyl-pyrimidin-4-ylamine]"
2.7 nM,7.9 nM,"C=Cc1c(N)ncnc1N1CCC(c2nc(-c3ccc(F)c(C(F)(F)F)c3)cn2CCN(C)C)CC1 [Compound 73, 6-{4-[1-(2-Dimethylamino-ethyl)-4-(4-fluoro-3-trifluoromethyl-phenyl)-1H-imidazol-2-yl]-piperidin-1-yl}-5-vinyl-pyrimidin-4-ylamine]"
1.2 nM,2.6 nM,"N#Cc1c(N)ncnc1N1CCC(c2nc(-c3ccc(F)c(C(F)(F)F)c3)cn2CCN2CCC2)CC1 [Compound 74, 4-Amino-6-{4-[1-(2-azetidin-1-yl-ethyl)-4-(4-fluoro-3-trifluoromethyl-phenyl)-1H-imidazol-2-yl]-piperidin-1-yl}-pyrimidine-5-carbonitrile]"
1 nM,1.9 nM,"N#Cc1c(N)ncnc1N1CCC(c2nc(-c3ccc(F)c(Cl)c3)cn2CCN2CCC2)CC1 [Compound 75, 4-Amino-6-{4-[1-(2-azetidin-1-yl-ethyl)-4-(3-chloro-4-fluoro-phenyl)-1H-imidazol-2-yl]-piperidin-1-yl}-pyrimidine-5-carbonitrile]"
2.1 nM,479 nM,"N#Cc1c(N)ncnc1N1CCC(c2nc(-c3ccc(OC(F)F)cc3)cn2CCN2CCC2)CC1 [Compound 76, 4-Amino-6-{4-[1-(2-azetidin-1-yl-ethyl)-4-(4-difluoromethoxy-phenyl)-1H-imidazol-2-yl]-piperidin-1-yl}-pyrimidine-5-carbonitrile]"
6 nM,76 nM,"N#Cc1c(N)ncnc1N1CCC(c2nc(C3CCCCC3)cn2CCN2CCC2)CC1 [Compound 77, 4-Amino-6-{4-[1-(2-azetidin-1-yl-ethyl)-4-cyclohexyl-1H-imidazol-2-yl]-piperidin-1-yl}-pyrimidine-5-carbonitrile]"
2 nM,14 nM,"NC(=O)c1c(N)ncnc1N1CCC(c2nc(-c3ccc(F)c(C(F)(F)F)c3)cn2CCN2CCC2)CC1 [Compound 78, 4-Amino-6-{4-[1-(2-azetidin-1-yl-ethyl)-4-(4-fluoro-3-trifluoromethyl-phenyl)-1H-imidazol-2-yl]-piperidin-1-yl}-pyrimidine-5-carboxylic acid amide]"
0.9 nM,7.5 nM,"NC(=O)c1c(N)ncnc1N1CCC(c2nc(-c3ccc(F)c(Cl)c3)cn2CCN2CCC2)CC1 [Compound 79, 4-Amino-6-{4-[1-(2-azetidin-1-yl-ethyl)-4-(3-chloro-4-fluoro-phenyl)-1H-imidazol-2-yl]-piperidin-1-yl}-pyrimidine-5-carboxylic acid amide]"
95 nM,1400 nM,"NC(=O)c1c(N)ncnc1N1CCC(c2nc(C3CCCCC3)cn2CCN2CCC2)CC1 [Compound 80, 4-Amino-6-{4-[1-(2-azetidin-1-yl-ethyl)-4-cyclohexyl-1H-imidazol-2-yl]-piperidin-1-yl}-pyrimidine-5-carboxylic acid amide]"
